Target: purified human MMP-12 enzyme (Homo sapiens, UniProt P39900)
Experiment: MMP-12 FRET assay
Format: biochemical
Conditions: substrate 20 μM, room temperature
Procedure: Compounds according to the present teachings were tested in an MMP-12 FRET assay as follows. To each well of black polystyrene 96-well plate was added assay buffer (50 mM HEPES (pH 7.4), 100 mM NaCl, 5 mM CaCl2 and 0.005% Brij-35 (Polyoxyethyleneglycol dodecyl ether, Pierce cat#20150), purified human MMP-12 enzyme, and varied concentrations of test compounds (prepared by serial dilution of a stock solution in 100% DMSO). The plates were incubated at room temperature for 30 minutes. The enzymatic reactions were initiated by addition of a substrate, MCA-Pro-Leu-Gly-Leu-Dpa(DNP)-Ala-Arg, containing a fluorescent group (7-methoxycoumarin, MCA) and a 2,4-dinitrophenyl group (DNP), to a final concentration of 20 μM. The final DMSO concentration in the assay was 10%. The reaction was monitored for 30 minutes at room temperature and the initial rate of the cleavage reaction was determined using a fluorescence plate reader (λex: 325 nm, λem: 395 nm). Plots of the inhibitor concentration vs. the initial cleavage rate were fit to the following equation: y=Vmax*(1−(x^n/(K^n+x^n))), whereby x=inhibitor concentration, y=initial rate, Vmax=initial rate in the absence of inhibitor, n=slope factor, and K=IC50 for the inhibition curve.

Sequence of purified human MMP-12 enzyme (P39900 106-470): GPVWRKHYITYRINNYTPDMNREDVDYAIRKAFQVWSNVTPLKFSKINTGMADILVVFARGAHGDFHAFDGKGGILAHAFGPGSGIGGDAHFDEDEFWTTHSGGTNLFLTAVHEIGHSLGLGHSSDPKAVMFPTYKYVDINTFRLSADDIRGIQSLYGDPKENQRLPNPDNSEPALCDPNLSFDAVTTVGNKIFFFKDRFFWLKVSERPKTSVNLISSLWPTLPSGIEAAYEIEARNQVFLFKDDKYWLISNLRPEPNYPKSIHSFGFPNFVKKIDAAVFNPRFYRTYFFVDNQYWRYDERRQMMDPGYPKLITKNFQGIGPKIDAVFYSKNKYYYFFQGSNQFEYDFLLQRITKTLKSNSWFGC

SMILES | IC50 [nM]
CC(C)[C@@H](NS(=O)(=O)c1ccc2c(c1)oc1ccc(-c3ccc4c(c3)C(C)(C)OC(=O)N4)cc12)C(=O)O [Compound 1, (R)-2-(8-(4,4-dimethyl-2-oxo-2,4-dihydro-1H-benzo[d][1,3]oxazin-6-yl)dibenzo[b,d]furan-3-sulfonamido)-3-methylbutanoic acid] | 11
CC(C)[C@H](NS(=O)(=O)c1ccc2c(c1)oc1ccc(C#CCN(C)C)cc12)C(=O)O [Compound 2, (S)-2-(8-(3-(dimethylamino)prop-1-ynyl)dibenzo[b,d]furan-3-sulfonamido)-3-methylbutanoic acid] | 2.4
CC(C)[C@H](NS(=O)(=O)c1ccc2c(c1)oc1ccc(-c3cccnc3)cc12)C(=O)O [Compound 3, (S)-3-methyl-2-(8-(pyridin-3-yl)dibenzo[b,d]furan-3-sulfonamido)butanoic acid] | < 1.5
CC(C)[C@H](NS(=O)(=O)c1ccc2c(c1)oc1ccc(-c3ccc4c(c3)C(C)(C)OC(=O)N4)cc12)C(=O)O [Compound 4, (S)-2-(8-(4,4-dimethyl-2-oxo-2,4-dihydro-1H-benzo[d][1,3]oxazin-6-yl)dibenzo[b,d]furan-3-sulfonamido)-3-methylbutanoic acid] | 12.2
Cc1cscc1-c1ccc2oc3cc(S(=O)(=O)N[C@H](C(=O)O)C(C)C)ccc3c2c1 [Compound 5, (S)-3-methyl-2-(8-(4-methylthiophen-3-yl)dibenzo[b,d]furan-3-sulfonamido)butanoic acid] | 2.2
COC(=O)C#Cc1ccc2oc3cc(S(=O)(=O)N[C@H](C(=O)O)C(C)C)ccc3c2c1 [Compound 6, (S)-2-(8-(3-methoxy-3-oxoprop-1-ynyl)dibenzo[b,d]furan-3-sulfonamido)-3-methylbutanoic acid] | 30.4
COc1ccc(-c2ccc3oc4cc(S(=O)(=O)N[C@H](C(=O)O)C(C)C)ccc4c3c2)cn1 [Compound 10, (S)-2-(8-(6-methoxypyridin-3-yl)dibenzo[b,d]furan-3-sulfonamido)-3-methylbutanoic acid] | < 1.5
CC(C)[C@H](NS(=O)(=O)c1ccc2c(c1)sc1ccc(-c3cccnc3)cc12)C(=O)O [Compound 11, (S)-3-methyl-2-(8-(pyridin-3-yl)dibenzo[b,d]thiophene-3-sulfonamido)butanoic acid] | 15.6
CC(C)[C@H](NS(=O)(=O)c1ccc2c(c1)oc1ccc(-c3csc4ccccc34)cc12)C(=O)O [Compound 12, (S)-2-(8-(benzo[b]thiophen-3-yl)dibenzo[b,d]furan-3-sulfonamido)-3-methylbutanoic acid] | < 1.5
CC(C)[C@H](NS(=O)(=O)c1ccc2c(c1)oc1ccc(-c3cc4ccccc4s3)cc12)C(=O)O [Compound 13, (S)-2-(8-(benzo[b]thiophen-2-yl)dibenzo[b,d]furan-3-sulfonamido)-3-methylbutanoic acid] | 1.7
CC(C)[C@H](NS(=O)(=O)c1ccc2c(c1)oc1ccc(C#Cc3cncn3C)cc12)C(=O)O [Compound 15, (S)-3-methyl-2-(8-((1-methyl-1H-imidazol-5-yl)ethynyl)dibenzo[b,d]furan-3-sulfonamido)butanoic acid] | < 1.5
CC(C)[C@H](NS(=O)(=O)c1ccc2c(c1)oc1ccc(-c3cnn(C)c3)cc12)C(=O)O [Compound 18, (S)-3-methyl-2-(8-(1-methyl-1H-pyrazol-4-yl)dibenzo[b,d]furan-3-sulfonamido)butanoic acid] | < 1.5
Cc1n[nH]c(C)c1-c1ccc2oc3cc(S(=O)(=O)N[C@H](C(=O)O)C(C)C)ccc3c2c1 [Compound 19, (S)-2-(8-(3,5-dimethyl-1H-pyrazol-4-yl)dibenzo[b,d]furan-3-sulfonamido)-3-methylbutanoic acid] | 44
CC(C)CCn1cc(-c2ccc3oc4cc(S(=O)(=O)N[C@H](C(=O)O)C(C)C)ccc4c3c2)cn1 [Compound 20, (S)-2-(8-(1-isopentyl-1H-pyrazol-4-yl)dibenzo[b,d]furan-3-sulfonamido)-3-methylbutanoic acid] | 4
CCCn1cc(-c2ccc3oc4cc(S(=O)(=O)N[C@H](C(=O)O)C(C)C)ccc4c3c2)cn1 [Compound 21, (S)-3-methyl-2-(8-(1-propyl-1H-pyrazol-4-yl)dibenzo[b,d]furan-3-sulfonamido)butanoic acid] | < 1.5
Cc1cscc1-c1ccc2sc3cc(S(=O)(=O)N[C@H](C(=O)O)C(C)C)ccc3c2c1 [Compound 24, (S)-3-methyl-2-(8-(4-methylthiophen-3-yl)dibenzo[b,d]thiophene-3-sulfonamido)butanoic acid] | 190
CC(C)[C@H](NS(=O)(=O)c1ccc2c(c1)sc1ccc(-c3ccoc3)cc12)C(=O)O [Compound 25, (S)-2-(8-(furan-3-yl)dibenzo[b,d]thiophene-3-sulfonamido)-3-methylbutanoic acid] | 4.8
Cc1noc(C)c1-c1ccc2sc3cc(S(=O)(=O)N[C@H](C(=O)O)C(C)C)ccc3c2c1 [Compound 27, (S)-2-(8-(3,5-dimethylisoxazol-4-yl)dibenzo[b,d]thiophene-3-sulfonamido)-3-methylbutanoic acid] | 700

Other lines, results leading:

IC50 [nM] | SMILES
10.7 | Cc1noc(C)c1-c1ccc2oc3cc(S(=O)(=O)N[C@H](C(=O)O)C(C)C)ccc3c2c1 [Compound 9, (S)-2-(8-(3,5-dimethylisoxazol-4-yl)dibenzo[b,d]furan-3-sulfonamido)-3-methylbutanoic acid]
< 1.5 | CC(C)[C@H](NS(=O)(=O)c1ccc2c(c1)oc1ccc(-c3ccc4ncccc4c3)cc12)C(=O)O [Compound 14, (S)-3-methyl-2-(8-(quinolin-6-yl)dibenzo[b,d]furan-3-sulfonamido)butanoic acid]
< 1.5 | CC(C)[C@H](NS(=O)(=O)c1ccc2c(c1)oc1ccc(-c3ccncc3)cc12)C(=O)O [Compound 16, (S)-3-methyl-2-(8-(pyridin-4-yl)dibenzo[b,d]furan-3-sulfonamido)butanoic acid]
3 | CC(C)[C@H](NS(=O)(=O)c1ccc2c(c1)oc1ccc(-c3cnn(Cc4ccccc4)c3)cc12)C(=O)O [Compound 22, (S)-2-(8-(1-benzyl-1H-pyrazol-4-yl)dibenzo[b,d]furan-3-sulfonamido)-3-methylbutanoic acid]
< 1.5 | CC(C)[C@H](NS(=O)(=O)c1ccc2c(c1)oc1ccc(-c3cn[nH]c3)cc12)C(=O)O [Compound 23, (S)-2-(8-(1H-pyrazol-4-yl)dibenzo[b,d]furan-3-sulfonamido)-3-methylbutanoic acid]
38 | CC(C)[C@H](NS(=O)(=O)c1ccc2c(c1)sc1ccc(-c3ccsc3)cc12)C(=O)O [Compound 26, (S)-3-methyl-2-(8-(thiophen-3-yl)dibenzo[b,d]thiophene-3-sulfonamido)butanoic acid]
< 1.5 | CC(C)[C@H](NS(=O)(=O)c1ccc2c(c1)oc1ccc(-c3ccsc3)cc12)C(=O)O [Compound 28, (S)-3-methyl-2-(8-(thiophen-3-yl)dibenzo[b,d]furan-3-sulfonamido)butanoic acid]
< 1.5 | CC(=O)c1ccc(-c2ccc3oc4cc(S(=O)(=O)N[C@H](C(=O)O)C(C)C)ccc4c3c2)s1 [Compound 32, (S)-2-(8-(5-acetylthiophen-2-yl)dibenzo[b,d]furan-3-sulfonamido)-3-methylbutanoic acid]

From patent US20100227859A1, “TRICYCLIC COMPOUNDS AS MATRIX METALLOPROTEINASE INHIBITORS” (priority 2007, published 2010)
